From article PMC12372887, “Mechanism and cellular actions of the potent AMPK inhibitor BAY-3827” (Science Advances, 2025)

What was measured:
Test in all cases: Kinase panel (140 human kinases)
Format in all cases: biochemical
[1] = biological target: T1, BRSK2 (Homo sapiens, UniProt Q8IWQ3)
T1 sequence (Q8IWQ3 1-736): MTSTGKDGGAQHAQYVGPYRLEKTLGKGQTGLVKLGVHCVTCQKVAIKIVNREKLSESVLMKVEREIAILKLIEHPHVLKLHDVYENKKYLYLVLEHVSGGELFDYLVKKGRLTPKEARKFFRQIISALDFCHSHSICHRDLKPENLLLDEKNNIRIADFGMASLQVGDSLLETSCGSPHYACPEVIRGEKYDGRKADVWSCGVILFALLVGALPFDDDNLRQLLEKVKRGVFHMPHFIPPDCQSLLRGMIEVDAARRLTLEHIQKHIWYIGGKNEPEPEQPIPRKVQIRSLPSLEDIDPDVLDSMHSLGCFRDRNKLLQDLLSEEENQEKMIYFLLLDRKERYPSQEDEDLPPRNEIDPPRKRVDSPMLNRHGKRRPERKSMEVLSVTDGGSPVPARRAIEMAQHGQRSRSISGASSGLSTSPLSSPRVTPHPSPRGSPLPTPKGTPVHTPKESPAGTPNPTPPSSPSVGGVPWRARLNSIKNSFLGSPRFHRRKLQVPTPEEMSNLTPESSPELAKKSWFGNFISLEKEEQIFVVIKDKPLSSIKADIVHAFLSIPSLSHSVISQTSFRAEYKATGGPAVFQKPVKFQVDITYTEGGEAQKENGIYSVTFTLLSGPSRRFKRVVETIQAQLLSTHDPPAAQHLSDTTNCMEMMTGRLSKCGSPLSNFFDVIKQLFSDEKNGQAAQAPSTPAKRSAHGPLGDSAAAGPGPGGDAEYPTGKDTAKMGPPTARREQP
Protocol: (§1) BAY-3827 and BAY-974 were assayed against a 140-human kinase panel at 0.1 μM and at 1 μM (BAY-3827) concentration in a [γ-^33P] ATP–based radioactive filter binding assay ([31], [65]) setup in duplicates with reported mean remaining kinase percentage activity alongside SD (table S1). Assays were performed at either 5, 20, or 50 μM ATP to be at or below the Michaelis constant for ATP for each enzyme and conducted by the services offered by the International Centre for Kinase Profiling at MRC Protein Phosphorylation and Ubiquitylation Unit, University of Dundee (https://www.kinase-screen.mrc.ac.uk/services/premier-screen).

[2] = biological target: PRAK (Homo sapiens, UniProt Q8IW41)
Protocol: as §1

[3] = biological target: EPH-B1 (Homo sapiens, UniProt P54762)
Protocol: as §1

[4] = biological target: RSK1 (Homo sapiens, UniProt Q15418)
Protocol: as §1

[5] = biological target: SIK2 (Homo sapiens, UniProt Q9H0K1)
Protocol: as §1

[6] = biological target: WNK1 (Homo sapiens, UniProt Q9H4A3)
Protocol: as §1

[7] = biological target: CDK2-Cyclin A (Homo sapiens, UniProt P24941)
Protocol: as §1

[8] = biological target: JNK1 (Homo sapiens, UniProt P45983)
Protocol: as §1

[9] = biological target: MST3 (Homo sapiens, UniProt Q9Y6E0)
Protocol: as §1

[10] = biological target: CSK (Homo sapiens, UniProt P41240)
Protocol: as §1

[11] = biological target: PKD1 (Homo sapiens, UniProt Q15139)
Protocol: as §1

[12] = biological target: SRPK1 (Homo sapiens, UniProt Q96SB4)
Protocol: as §1

[13] = biological target: T2, IRAK4 (Homo sapiens, UniProt Q9NWZ3)
T2 sequence (Q9NWZ3 1-460): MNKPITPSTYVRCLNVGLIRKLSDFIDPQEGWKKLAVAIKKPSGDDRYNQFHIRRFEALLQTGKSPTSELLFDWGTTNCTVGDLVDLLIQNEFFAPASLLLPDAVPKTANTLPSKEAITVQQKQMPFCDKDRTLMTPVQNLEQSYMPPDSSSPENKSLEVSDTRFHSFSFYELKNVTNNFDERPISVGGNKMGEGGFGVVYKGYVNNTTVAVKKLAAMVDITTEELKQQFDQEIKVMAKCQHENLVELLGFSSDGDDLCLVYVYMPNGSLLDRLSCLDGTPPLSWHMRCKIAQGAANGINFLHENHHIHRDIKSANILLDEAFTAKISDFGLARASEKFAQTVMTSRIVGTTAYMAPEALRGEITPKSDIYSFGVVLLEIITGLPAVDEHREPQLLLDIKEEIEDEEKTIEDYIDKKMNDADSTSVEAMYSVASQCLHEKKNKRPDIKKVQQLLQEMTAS
Protocol: as §1

[14] = biological target: TTK (Homo sapiens, UniProt P33981)
Protocol: as §1

[15] = biological target: MNK1 (Homo sapiens, UniProt Q9BUB5)
Protocol: as §1

[16] = biological target: MINK1 (Homo sapiens, UniProt Q8N4C8)
Protocol: as §1

[17] = biological target: IRAK1 (Homo sapiens, UniProt P51617)
Protocol: as §1

[18] = biological target: EPH-B2 (Homo sapiens, UniProt P29323)
Protocol: as §1

[19] = biological target: PDK1 (Homo sapiens, UniProt O15530)
Protocol: as §1

[20] = biological target: p38a MAPK (Homo sapiens, UniProt Q16539)
Protocol: as §1

[21] = biological target: MST4 (Homo sapiens, UniProt Q9P289)
Protocol: as §1

[22] = biological target: PKBa (Homo sapiens, UniProt P31749)
Protocol: as §1

[23] = biological target: Lck (Homo sapiens, UniProt P06239)
Protocol: as §1

[24] = biological target: MLK1 (Homo sapiens, UniProt P80192)
Protocol: as §1

[25] = 1 μM, cross-referenced with screen data of ref 37, read-out: activity remaining after treatment

WNK1, sequence (Q9H4A3 whole entry): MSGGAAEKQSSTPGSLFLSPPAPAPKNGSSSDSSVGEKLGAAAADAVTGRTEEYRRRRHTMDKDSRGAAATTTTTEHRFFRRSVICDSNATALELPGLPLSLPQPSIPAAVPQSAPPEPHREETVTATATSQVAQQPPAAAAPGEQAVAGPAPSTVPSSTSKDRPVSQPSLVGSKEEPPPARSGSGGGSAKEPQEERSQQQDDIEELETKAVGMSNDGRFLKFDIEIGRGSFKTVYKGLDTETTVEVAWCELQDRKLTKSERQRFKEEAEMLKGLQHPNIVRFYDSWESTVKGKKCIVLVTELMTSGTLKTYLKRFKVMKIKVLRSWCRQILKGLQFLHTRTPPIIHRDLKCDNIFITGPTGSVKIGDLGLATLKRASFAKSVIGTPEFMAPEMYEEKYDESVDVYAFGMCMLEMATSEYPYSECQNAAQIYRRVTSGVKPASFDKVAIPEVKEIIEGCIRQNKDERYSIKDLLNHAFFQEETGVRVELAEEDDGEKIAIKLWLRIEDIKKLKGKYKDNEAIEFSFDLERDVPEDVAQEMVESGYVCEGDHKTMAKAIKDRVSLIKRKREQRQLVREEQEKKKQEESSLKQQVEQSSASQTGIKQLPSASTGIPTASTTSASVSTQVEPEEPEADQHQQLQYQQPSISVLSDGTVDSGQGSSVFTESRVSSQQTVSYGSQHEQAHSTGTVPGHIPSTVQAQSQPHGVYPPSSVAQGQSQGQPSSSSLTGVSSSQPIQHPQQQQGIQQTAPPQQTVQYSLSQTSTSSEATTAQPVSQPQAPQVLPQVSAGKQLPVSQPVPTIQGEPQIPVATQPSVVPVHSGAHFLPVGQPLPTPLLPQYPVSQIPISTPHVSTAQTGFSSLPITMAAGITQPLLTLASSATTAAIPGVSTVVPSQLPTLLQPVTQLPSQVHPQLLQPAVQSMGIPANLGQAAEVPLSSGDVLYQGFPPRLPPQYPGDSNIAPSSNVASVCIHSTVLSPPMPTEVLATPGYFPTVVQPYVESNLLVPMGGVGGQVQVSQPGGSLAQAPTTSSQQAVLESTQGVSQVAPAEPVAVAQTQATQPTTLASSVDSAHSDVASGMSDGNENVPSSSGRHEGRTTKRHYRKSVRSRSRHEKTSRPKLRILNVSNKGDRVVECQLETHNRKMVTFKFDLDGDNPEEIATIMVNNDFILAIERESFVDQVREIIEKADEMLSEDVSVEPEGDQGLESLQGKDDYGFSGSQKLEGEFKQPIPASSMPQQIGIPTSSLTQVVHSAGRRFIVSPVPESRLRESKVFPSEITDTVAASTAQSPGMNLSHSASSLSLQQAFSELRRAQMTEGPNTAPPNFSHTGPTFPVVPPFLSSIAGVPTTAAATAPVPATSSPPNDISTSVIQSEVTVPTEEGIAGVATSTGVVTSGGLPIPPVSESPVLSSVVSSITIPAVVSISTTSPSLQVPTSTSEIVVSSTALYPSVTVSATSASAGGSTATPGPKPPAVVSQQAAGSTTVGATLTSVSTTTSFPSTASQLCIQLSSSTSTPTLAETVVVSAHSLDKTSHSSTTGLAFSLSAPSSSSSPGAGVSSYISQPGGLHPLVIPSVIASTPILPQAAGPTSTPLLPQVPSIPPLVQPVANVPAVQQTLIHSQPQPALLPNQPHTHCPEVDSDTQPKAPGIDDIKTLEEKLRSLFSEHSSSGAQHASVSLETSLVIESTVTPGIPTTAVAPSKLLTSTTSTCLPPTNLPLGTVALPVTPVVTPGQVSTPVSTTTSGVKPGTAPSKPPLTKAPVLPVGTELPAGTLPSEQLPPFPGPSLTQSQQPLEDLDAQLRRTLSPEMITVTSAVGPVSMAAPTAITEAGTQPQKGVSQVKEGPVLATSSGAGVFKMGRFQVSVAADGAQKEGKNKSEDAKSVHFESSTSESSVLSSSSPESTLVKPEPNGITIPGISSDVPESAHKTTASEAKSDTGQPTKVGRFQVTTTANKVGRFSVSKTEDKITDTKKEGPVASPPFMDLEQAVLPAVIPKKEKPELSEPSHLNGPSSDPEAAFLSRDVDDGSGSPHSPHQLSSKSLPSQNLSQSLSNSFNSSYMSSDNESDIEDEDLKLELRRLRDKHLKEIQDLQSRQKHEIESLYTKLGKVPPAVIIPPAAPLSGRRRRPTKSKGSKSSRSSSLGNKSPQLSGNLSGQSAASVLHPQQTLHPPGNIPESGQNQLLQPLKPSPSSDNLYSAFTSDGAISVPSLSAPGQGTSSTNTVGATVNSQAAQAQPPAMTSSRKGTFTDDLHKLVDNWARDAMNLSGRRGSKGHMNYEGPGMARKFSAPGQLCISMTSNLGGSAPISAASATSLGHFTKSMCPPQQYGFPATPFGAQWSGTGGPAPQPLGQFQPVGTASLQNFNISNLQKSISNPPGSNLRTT
RSK1, sequence (Q15418 whole entry): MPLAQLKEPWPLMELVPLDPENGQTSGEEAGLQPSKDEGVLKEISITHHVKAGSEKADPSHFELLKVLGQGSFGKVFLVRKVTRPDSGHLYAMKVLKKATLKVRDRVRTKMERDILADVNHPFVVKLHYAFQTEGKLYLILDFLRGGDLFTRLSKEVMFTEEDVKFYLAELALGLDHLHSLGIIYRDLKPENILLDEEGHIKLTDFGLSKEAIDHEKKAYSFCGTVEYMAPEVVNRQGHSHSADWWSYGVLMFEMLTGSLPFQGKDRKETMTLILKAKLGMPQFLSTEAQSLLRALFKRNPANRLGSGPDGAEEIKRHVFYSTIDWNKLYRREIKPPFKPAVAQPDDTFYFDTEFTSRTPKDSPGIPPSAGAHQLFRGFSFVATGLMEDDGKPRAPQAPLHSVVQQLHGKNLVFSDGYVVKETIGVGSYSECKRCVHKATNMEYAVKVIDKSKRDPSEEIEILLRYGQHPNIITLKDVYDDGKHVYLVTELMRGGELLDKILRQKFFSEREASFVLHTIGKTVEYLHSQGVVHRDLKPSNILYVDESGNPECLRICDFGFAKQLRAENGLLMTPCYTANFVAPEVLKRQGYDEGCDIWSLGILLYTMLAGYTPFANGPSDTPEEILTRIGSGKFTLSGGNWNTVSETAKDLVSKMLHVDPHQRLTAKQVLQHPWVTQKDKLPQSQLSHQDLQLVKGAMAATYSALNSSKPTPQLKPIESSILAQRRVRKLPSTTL
MINK1, sequence (Q8N4C8 whole entry): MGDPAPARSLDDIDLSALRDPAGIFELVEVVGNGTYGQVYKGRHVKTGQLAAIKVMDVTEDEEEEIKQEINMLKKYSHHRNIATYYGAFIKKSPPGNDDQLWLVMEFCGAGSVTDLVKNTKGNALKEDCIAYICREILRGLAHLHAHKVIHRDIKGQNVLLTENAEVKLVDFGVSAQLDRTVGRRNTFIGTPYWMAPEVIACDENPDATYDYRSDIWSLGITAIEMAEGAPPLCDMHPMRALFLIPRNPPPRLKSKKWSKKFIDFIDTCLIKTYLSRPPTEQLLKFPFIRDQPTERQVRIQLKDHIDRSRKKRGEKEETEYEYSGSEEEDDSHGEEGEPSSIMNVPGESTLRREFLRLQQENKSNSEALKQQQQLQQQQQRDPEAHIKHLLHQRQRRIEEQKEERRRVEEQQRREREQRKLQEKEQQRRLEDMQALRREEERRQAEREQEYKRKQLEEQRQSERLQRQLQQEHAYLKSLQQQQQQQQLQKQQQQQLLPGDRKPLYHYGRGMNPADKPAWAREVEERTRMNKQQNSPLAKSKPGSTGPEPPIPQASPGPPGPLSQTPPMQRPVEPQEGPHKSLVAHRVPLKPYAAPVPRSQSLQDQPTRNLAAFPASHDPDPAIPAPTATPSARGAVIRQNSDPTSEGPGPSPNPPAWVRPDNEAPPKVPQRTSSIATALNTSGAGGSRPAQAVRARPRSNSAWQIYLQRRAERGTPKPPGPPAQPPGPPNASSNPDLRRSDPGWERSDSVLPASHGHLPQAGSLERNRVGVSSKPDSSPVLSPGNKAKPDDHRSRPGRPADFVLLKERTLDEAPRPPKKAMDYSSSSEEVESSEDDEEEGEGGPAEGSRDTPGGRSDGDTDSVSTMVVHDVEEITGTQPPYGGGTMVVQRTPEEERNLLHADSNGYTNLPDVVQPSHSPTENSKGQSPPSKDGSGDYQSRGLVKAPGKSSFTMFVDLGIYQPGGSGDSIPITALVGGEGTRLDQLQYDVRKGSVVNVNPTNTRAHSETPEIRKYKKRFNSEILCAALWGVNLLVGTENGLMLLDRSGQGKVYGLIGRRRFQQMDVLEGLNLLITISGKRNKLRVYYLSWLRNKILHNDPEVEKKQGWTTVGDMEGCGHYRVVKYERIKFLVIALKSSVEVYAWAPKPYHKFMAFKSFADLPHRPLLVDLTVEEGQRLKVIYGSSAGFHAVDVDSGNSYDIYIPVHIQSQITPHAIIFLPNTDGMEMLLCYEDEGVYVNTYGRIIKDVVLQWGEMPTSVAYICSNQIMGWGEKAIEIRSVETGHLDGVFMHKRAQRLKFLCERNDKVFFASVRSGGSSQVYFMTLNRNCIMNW
MNK1, sequence (Q9BUB5 whole entry): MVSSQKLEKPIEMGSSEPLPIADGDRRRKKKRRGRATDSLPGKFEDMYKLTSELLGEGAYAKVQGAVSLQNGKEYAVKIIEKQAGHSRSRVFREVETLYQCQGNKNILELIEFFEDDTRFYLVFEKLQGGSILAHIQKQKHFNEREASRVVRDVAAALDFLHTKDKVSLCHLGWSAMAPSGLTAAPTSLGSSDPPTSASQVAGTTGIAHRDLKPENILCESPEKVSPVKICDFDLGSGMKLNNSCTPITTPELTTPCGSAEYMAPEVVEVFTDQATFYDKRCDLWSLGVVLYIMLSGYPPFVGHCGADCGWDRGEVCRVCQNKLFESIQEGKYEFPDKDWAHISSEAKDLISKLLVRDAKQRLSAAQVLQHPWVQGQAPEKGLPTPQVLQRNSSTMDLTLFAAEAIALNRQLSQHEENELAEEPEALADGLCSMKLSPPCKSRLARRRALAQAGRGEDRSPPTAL

Row | Compound | remaining activity at 0.1 µM [1] [%] | remaining activity at 0.1 µM [2] [%] | remaining activity at 0.1 µM [3] [%] | remaining activity at 0.1 µM [5] [%] | remaining activity at 0.1 µM [6] [%] | remaining activity at 0.1 µM [7] [%] | remaining activity at 0.1 µM [8] [%] | remaining activity at 0.1 µM [9] [%] | remaining activity at 0.1 µM [10] [%] | remaining activity at 0.1 µM [11] [%] | remaining activity at 0.1 µM [12] [%] | remaining activity at 0.1 µM [13] [%] | remaining activity at 0.1 µM [14] [%] | remaining activity at 0.1 µM [15] [%] | remaining activity at 0.1 µM [16] [%] | inhibition at 0.1 µM [17] [%] | remaining activity at 0.1 µM [18] [%] | remaining activity at 0.1 µM [19] [%] | remaining activity at 0.1 µM [20] [%] | remaining activity at 0.1 µM [21] [%] | also measured
1 | CC1=C(C#N)C(c2ccc3c(c2)c(NC(=O)c2ccccc2C)nn3C)C(C#N)=C(C)N1 [BAY-974, N-[5-(3,5-dicyano-2,6-dimethyl-1,4-dihydropyridin-4-yl)-1-methylindazol-3-yl]-2-methylbenzamide] | 112 | 107 | 107 | 88 | 117 | 96 | 106 | 89 | 123 | 84 | 97 | 92 | 79 | 100 | 79 | 55 to 90 | 82 | 85 | 108 | 98 | remaining activity at 0.1 µM ([4]; 0.1 μM): 66%; remaining activity at 0.1 µM [22]: 95%; remaining activity at 0.1 µM [23]: 58%; remaining activity at 0.1 µM [24]: 90%
2 | CCc1ccccc1C(=O)Nc1n[nH]c2c(C)c(F)c(C3C(C#N)=C(C)N(C)C(C)=C3C#N)cc12 [BAY-3827, N-[5-(3,5-dicyano-1,2,6-trimethyl-4H-pyridin-4-yl)-6-fluoro-7-methyl-1H-indazol-3-yl]-2-ethylbenzamide] | 82 | 101 | 91 | 107 | 101 | 99 | 94 | ≤ 50 | 79 | 100 | 111 | 111 | 74 | 126 | ≤ 50 | ~60 | 98 | 83 | 97 | 64 | remaining activity at 1 µM [1, 25]: ≤ 50%; inhibition at 0.1 µM ([4]; 0.1 μM): 80 to 85%; remaining activity at 1 µM [4, 25]: ≤ 50%; remaining activity at 1 µM [6, 25]: ≥ 99%; remaining activity at 1 µM ([7]; 1 μM, CDK2, cross-referenced with screen data of ref 37, read-out: activity remaining after treatment): ≥ 99%; remaining activity at 1 µM [13, 25]: ≥ 99%; inhibition at 0.1 µM [16]: ~60%; remaining activity at 0.1 µM [17]: ≤ 50%; remaining activity at 0.1 µM [22]: 95%; remaining activity at 0.1 µM [23]: 93%; remaining activity at 0.1 µM [24]: 89%
